The test system of assay [1] is SCD (steroyl CoA desaturase). Put plainly: Effect on SREBP-1c target genes in HepG2 cells, real time PCR: SCD. It counts as cell-based. The following applies: HepG2 cells stimulated with oleate, 50 μM, 6 hours, normalized to 18S; FIG. 2. Here is the method: (§1) HepG2 cells (ATCC) were seeded at 20,000 cells per well in 96 well plates. After adhering overnight, growth media (1.0% FBS in DMEM) was removed and cells were serum starved for 24 hours in DMEM containing 1% fatty acid free bovine serum albumin (BSA, Sigma). […] Cells were incubated for 6 hours and then washed with PBS. RNA was reverse-transcribed using the cells to cDNA reagents according to standard protocols (outlined in Applied Biosystem StepOne Real-time PCR protocols). Real time PCR of transcripts was performed with Taqman assays for the three specific genes FASN (fatty acid synthase), SCD (steroyl CoA desaturase) and ApoA1 (apolipoprotein A1). In all three cases, 18S-VIC® was used as a normalization control.
Background: Quantitative PCR measures a nucleic acid by following its amplification.

The test system of assay [2] is ApoA1 (apolipoprotein A1). Put plainly: Effect on SREBP-1c target genes in HepG2 cells, real time PCR: ApoA1. It counts as cell-based. Conditions: HepG2 cells stimulated with oleate, 50 μM, 6 hours, normalized to 18S; FIG. 2. As for the experimental part:
as §1

The subject of assay [3] is FASN (fatty acid synthase). In words: Effect on SREBP-1c target genes in HepG2 cells, real time PCR: FASN. Type of assay: cell-based. Conditions: HepG2 cells stimulated with oleate, 50 μM, 6 hours, normalized to 18S; FIG. 2. Here is the method: as §1
Assay [4] has as its system ApoB secretion in HepG2 cells. Conditions: 3 concentrations (50, 100 and 200 μM), compared to niacin at 5 mM, FIG. 1.
Protocol: HepG2 cells (ATCC) are seeded at 10,000 cells per well in 96 well plates. After adhering overnight, growth media (10% FBS in DMEM) is removed and cells are serum starved for 24 hours in DMEM containing 0.1% fatty acid free bovine serum albumin (BSA, Sigma). Cells are then treated with a compound. Niacin at 5 mM is used as a positive control. All treatments are performed in triplicate. Simultaneous with compound treatment, ApoB secretion is stimulated with addition of 0.1 oleate complexed to fatty acid free BSA in a 5:1 molar ratio. Incubation with a compound and oleate is conducted for 24 hours. Media supernatants are removed and ApoB concentrations are measured using ELISA kits (Mabtech AB). Percent inhibition of ApoB secretion is determined by normalizing data to vehicle treated wells. For a given compound, an IC50 (concentration at which 50% of ApoB secretion is inhibited) can also be determined by using a 4 parameter-fit inhibition curve model (Graph Pad Prism®). In each experiment, cell viability is determined using the ATPlite 1-Step kit (Perkin Elmer), such that compound effects due to cytotoxicity can be monitored.
The level of ApoB secretion was compared to that of niacin, evaluated at 5 mM concentration.

The values that follow come from US9486534B2, “Niacin conjugated fatty acid mixtures and their uses” (Catabasis Pharmaceuticals, Inc., priority 2009, dated 2016).

For `CC/C=C\C/C=C\C/C=C\C/C=C\C/C=C\CCCC(=O)NCCNC(=O)c1cccnc1` [I-8, N-(2-(5Z,8Z,11Z,14Z,17Z)-eicosa-5,8,11,14,17-pentaenamidoethyl)nicotinamide], the SCD gene expression entry in assay [1] is reported as “statistically significant inhibition”. The ApoA1 gene expression result in assay [2] is listed as “increase”. In assay [3], the FASN gene expression entry is recorded as “statistically significant inhibition”.
In the case of `CC/C=C\C/C=C\C/C=C\C/C=C\C/C=C\C/C=C\CCC(=O)NCCNC(=O)c1cccnc1` [I-7, N-(2-(4Z,7Z,10Z,13Z,16Z,19Z)-docosa-4,7,10,13,16,19-hexaenamidoethyl)nicotinamide], the “inhibition of ApoB secretion” value in assay [4] is on record as “significant inhibition”. Moreover, the SCD gene expression entry in assay [1] is recorded as “statistically significant inhibition”. The ApoA1 gene expression entry in assay [2] is reported as “increase”. Further, the FASN gene expression result in assay [3] is on record as “statistically significant inhibition”.
